Legend:
sciatic nerve [1] = details: rat, in vivo
sciatic nerve [2] = tested on: sciatic nerve; set-up: species or system Sprague-Dawley rat; details: rat, in vivo
sciatic nerve [3] = tested on: sciatic nerve; set-up: species or system Sprague-Dawley rat; details: rat, in vivo; remark: listed apart in the source
sciatic nerve [4] = tested on: sciatic nerve; set-up: species or system Sprague-Dawley rat; details: rat, in vivo; remark: listed apart in the source
sciatic nerve [5] = tested on: sciatic nerve; set-up: species or system Sprague-Dawley rat; details: rat, in vivo; remark: listed apart in the source
thermal nociception = details: rat, in vivo
nerve block = tested on: nerve block; set-up: species or system human; details: in vivo

## Oc1cc2c(cc1O)CN(C(=S)NCCc1ccc(Cl)cc1)CCC2 [capsazepine]
Sciatic nerve [1]
  Reversal of established block from vanilloid-site 1 toxin combination: reverses established block

## CCCCN1CCCCC1C(=O)Nc1c(C)cccc1C (centres unmarked) [Bupivacaine, bupivacaine]
Sciatic nerve [2]
  "Missed block" rate: 0%
  Modalities impaired: all four modalities were impaired in all rats
  Rate of successful block: 100%
Sciatic nerve [3]
  Duration of Effective Block, Hop: 143 ± 48 min
Sciatic nerve [4]
  Duration of Effective Block, EPT: 190 ± 56 min
Sciatic nerve [5]
  Duration of Effective Block, PPR: 162 ± 44 min
Thermal nociception
  Duration of block, thermal nociception: 104 ± 18 min

## COc1cc(CNC(=O)CCCC/C=C/C(C)C)ccc1O [capsaicin, trans-8-methyl-N-vanillyl-6-nonenamide]
Sciatic nerve [1]
  Dose required for prolonged block with TTX, fold below threshold for block from the vanilloid alone: more than 5 fold
  Duration of prolonged block: 2 days
Nerve block
  Duration of prolonged block: 3 to 4 days

## C=C(C)C12CC(C)C34OC(Cc5ccccc5)(OC1C3C=C(COC(=O)Cc1ccc(O)c(OC)c1)CC1(O)C(=O)C(C)=CC14)O2 (centres unmarked) [resiniferotoxin]
Sciatic nerve [1]
  Dose required for prolonged block with TTX, fold below threshold for block from the vanilloid alone: more than 5 fold
  Duration of prolonged block: 2 days
Nerve block
  Duration of prolonged block: 3 to 4 days

From patent US6326020A (priority 1998, dated 2001)
